Data set [1] relates to neutrophylic granulocytes and limphocytes. The settings on record: mouse, in vivo, po.
The nature of data set [2]: in vivo.
In data set [3] the test system is neutrophilic granulocytes, lymphocytes and macrophages. As to the kind of experiment: Preliminary rapid test: immunostimulant effect. In kind it is in vivo, CFLP male mice. The settings on record: oral, one-tenth of LD50; 24 hours.
For data set [4], the system named is NK-yl ascites tumor. As to the kind of experiment: Combinations with known cytostatic agents in NK-ly ascites tumor. The class given is in vivo, CFLP mice. Particulars: with cyclophosphamide, carnomustine, degranol, dibromo dulcitol or dibromo mannitol.
Data set [5] has as its system NK-ly-ascites lymphoma. As to the kind of experiment: NK-ly-ascites lymphoma in vivo. Also noted: species or system CFLP male mice. Particulars: for Activity against NK-ly-ascites tumor: concentration below one-tenth of the LD50 value; for Survival rate and lifetime: dose-dependant.

The term LD50 denotes the dose at which mortality reaches 50%. `CCCSC(=N)NC(=N)N` [Example 10, N-Aminoiminomethyl-S-n-Propyl-Isothuronium Bromide] returned a Toxic effect in data set [1] of 0. In addition, the LD50 at 24 h in data set [2] (po) was 2800 ± 260 mg/kg. Also, the Immunostimulant effect entry in data set [3] is on record as “medium (Medium effect is observed if the increase of cell number or activity over the control amounts to 20%)”.

With `CC(C)SC(=N)NC(=N)N` [Example 24, N-aminoiminomethyl-S-isopropyl-isothiuronium bromide], the Toxic effect in data set [1] is 0. In data set [2] (po), this compound displayed a 50% lethal dose (LD50) at 24 h of 2260 ± 210 mg/kg. The Immunostimulant effect result in data set [3] is reported as “medium (Medium effect is observed if the increase of cell number or activity over the control amounts to 20%)”.

Take `CC(C)CCSC(=N)NC(=N)N` [Example 26, N-aminoiminomethyl-S-isoamyl-isothiuronium bromide]: in data set [1], the Toxic effect worked out at 0. This compound also returned a 50% lethal dose (LD50) at 24 h in data set [2] (po) of 2260 ± 241 mg/kg. Also, in data set [3], the Immunostimulant effect result is listed as “medium (Medium effect is observed if the increase of cell number or activity over the control amounts to 20%)”.

Consider `C=CCN=C(NC(=N)N)SCC=C` [Example 45, N-(Aminoiminomethyl)-N'-Allyl-S-Allyl-Isothiuronium Bromide], for which, in data set [4], the “Antitumor effect of combination vs cytostatic agent alone” value is listed as “the antitumor effect was strengthened” and the “Immunodepression of combination vs cytostatic agent alone” value is recorded as “immunodepression decreased”. The compound also yielded a Toxic effect in data set [1] of 0. This compound also returned an LD50 at 24 h in data set [2] (ip) of 36 ± 4 mg/kg. Moreover, the LD50 at 24 h in data set [2] (po) turned out to be 380 ± 41 mg/kg. Moreover, in data set [5], the “Activity against NK-ly-ascites tumor” value is reported as “active agains Nk-ly-ascites tumor in a concentration below one-tenth of the LD50 value”; the “Survival rate and lifetime” value is “increase survival rate and lifetime in a dose-dependant manner”. Also, in data set [3], the Immunostimulant effect entry is “weak”.

In data set [2] (po), `C#CCSC(=N)NC(=N)N` [Example 31, N-aminoiminomethyl-S-propargyl-isothuronium bromide] gave an LD50 at 24 h of 90 mg/kg.

As for `CCCCSC(=N)NC(=N)N` [Example 25, N-aminoiminomethyl-S-n-butyl-isothiuronium bromide], the Toxic effect in data set [1] came to 0. Besides, the LD50 at 24 h in data set [2] (po) amounted to 2700 ± 310 mg/kg. The Immunostimulant effect result in data set [3] was “medium (Medium effect is observed if the increase of cell number or activity over the control amounts to 20%)”.

Compound `N=C(N)NC(=N)SCCCO` [Example 29, N-aminoiminomethyl-S-(3-hydroxy-propyl)-isothiuronium bromide] displayed a Toxic effect in data set [1] of 0. The compound also registered an LD50 at 24 h in data set [2] (po) of 2860 ± 180 mg/kg. Moreover, in data set [3], the Immunostimulant effect entry was “medium (Medium effect is observed if the increase of cell number or activity over the control amounts to 20%)”.

As for `CSC(=N)NC(=N)N` [Example 9, N-Aminoiminomethyl-S-Methyl-Isothiuronium Iodide], in data set [2] (po), the LD50 at 24 h turned out to be 2320 ± 220 mg/kg. The Immunostimulant effect result in data set [3] was “medium (Medium effect is observed if the increase of cell number or activity over the control amounts to 20%)”.

For the compound `C=C(C)CSC(=N)NC(=N)N` [Example 44, N-(Aminoiminomethyl)-S-Metallyl-Isothiuronium-Bromide], the Toxic effect in data set [1] came out at 0. This compound returned an LD50 at 24 h in data set [2] (po) of 1640 ± 210 mg/kg. For the same compound, in data set [3], the Immunostimulant effect result is recorded as “medium (Medium effect is observed if the increase of cell number or activity over the control amounts to 20%)”.

For `C=CCSC(=NC)NC(=N)N` [Example 20, N-Aminoiminomethyl-N'-Methyl-S-Allyl-Isothiuronium Chloride], in data set [1], the Toxic effect came out at 0. The 50% lethal dose (LD50) at 24 h in data set [2] (ip) amounted to 75 ± 6.3 mg/kg; in data set [2] (po) it was 600 ± 54 mg/kg. The “Activity against NK-ly-ascites tumor” value in data set [5] is “active agains Nk-ly-ascites tumor in a concentration below one-tenth of the LD50 value”. The “Survival rate and lifetime” value in data set [5] was “increase survival rate and lifetime in a dose-dependant manner”. For the same compound, the Immunostimulant effect entry in data set [3] is given as “weak”.

On to `CCSC(=N)NC(=N)N` [Example 23, N-aminoiminomethyl-S-ethyl-isothiuronium bromide], for which the Toxic effect in data set [1] amounted to 0. The compound further returned a 50% lethal dose (LD50) at 24 h in data set [2] (po) of 3080 ± 290 mg/kg. The Immunostimulant effect result in data set [3] was “strong (The effect is strong if the increase of the cell number and activity of the immune system is more than 20% higher than the control)”.

`C=CCSC(=NC(C)C)NC(=N)N` [Example 21, N-aminoiminomethyl-N'-Isopropyl-S-Allyl-Isothiuronium Chloride]: the Toxic effect in data set [1] is 0. Also, the median lethal dose (LD50) at 24 h in data set [2] (ip) stood at 32 ± 4 mg/kg; in data set [2] (po), 280 ± 26 mg/kg. The Immunostimulant effect entry in data set [3] is “weak”.

The values above are taken from US4710578A, “Isothiuronium salts” (Peremartoni Vegyipari Vallalat, priority 1984, dated 1987).
